From patent publication US20250248957A1, “CELL DIFFERENTIATION” (JOHN HEMMING TRADING LTD, priority 2022, published 2025)

How the values were obtained:
Format in all cases: in vivo, human
[1] = tested on: precancerous spot; experiment: Appearance of a precancerous spot on the skin; conditions: about 3 g citrate daily for about 3 months; FIG. 7
[2] = tested on: muscle stem cells (satellite cells); experiment: Muscle mass of the subject after citrate administration; conditions: total daily citrate dose 3.95 g
Protocol: (§1) Citrate was administered to the subject in the morning as magnesium and potassium citrate, at lunch time as 10 ml of lemon juice and as calcium and sodium citrate with a total daily citrate dose of 3.95 g. The antioxidant melatonin was administered at night to provide a total nightly dose of between 10 mg and 470 mg.

[3] = tested on: hair follicle stem cells; experiment: Hair growth on the scalp of a subject after citrate administration
Protocol: as §1, with “Citrate was administered to a subject in the morning as magnesium and potassium citrate and at lunch time as 10 ml of lemon juice to provide a total daily citrate dose of 1.85 g. The antioxidant melatonin was administered at night to provide a total nightly dose of between 10 mg and 470 mg. Citrate was administered daily for four weeks. Citrate” for “Citrate”

[4] = Facial skin quality (number of blemishes); conditions: 2-40 g citrate daily for 6 weeks; before: 25; FIG. 6
Description: Administration of citrate was also found to improve facial skin quality following administration of between 2 and 40 g of citrate daily for a period of 6 weeks.

[5] = Kidney function markers (Cystatin C, creatinine)
Description: The subject's creatinine levels reached as low as […].

[6] = Blood glucose over 24 hour periods by continuous glucose monitor (CGM); conditions: 2-40 g citrate daily, 10 months; two non-consecutive days; FIGS. 5(d),(e)
Protocol: (§2) Citrate was administered to the subject with a total daily citrate dose of between 2 and 40 g for a period of 10 months. Blood glucose levels were measured over separate 24 hour periods using a continuous glucose monitor (CGM) purchased from Dexcom.

[7] = Concentration of key biomarkers in the blood (HbA1c, folate, glucose)
Protocol: as §2
The Inventor also measured haemoglobin A1C (HbA1c) which can be used as a diagnostic marker for diabetes. An HbA1c concentration of >6.4% is indicative of diabetes, and a concentration of 5.7% to 6.4% is indicative of prediabetes.

[8] = tested on: C reactive protein (CRP); experiment: CRP level in the blood of the subject
Protocol: as §1
CRP levels were reduced from 0.5 mg/L to <0.3 mg/L (0.3 mg/L represents the lower limit of detection) following two months of citrate administration. A subsequent measurement of CRP using equipment with higher sensitivity identified a CRP level of below 0.16 mg/L. The Inventor believes that reduced CRP levels result from increased differentiation of senescent stem cells and reduced production of senescent cells via cell dedifferentiation.

With O=C(O)CC(O)(CC(=O)O)C(=O)O [citrate] the “appearance of a precancerous spot on the skin” value [1] was “reduce the appearance of a precancerous spot”, the muscle mass [2] was “An increase in muscle mass” and the “hair growth with added red or infrared radiation” value ([3]; topical red or infrared radiation 600-900 nm in addition to citrate) was “further improved hair growth”. The “growth of new hairs in areas of the scalp which had suffered hair loss” value ([3]; total daily citrate dose 1.85 g for four weeks, melatonin at night, FIG. 1) was “growth of new hairs was observed”, the “growth of thicker and darker hairs” value ([3]; total daily citrate dose 3.95 g, melatonin at night, compared to Example 1, FIGS. 2-4) was “growth of hairs which were thicker and darker” and the “number of facial blemishes” value [4] was 20. The “creatinine level, lowest reached” value ([5]; 2-40 g citrate daily, 10 months) was 62 mmol/L, the “Cystatin C level” value ([5]; following 3 months of citrate, 2-40 g daily, baseline 0.98 mg/L) was 0.89 mg/L and the “blood glucose peaks over 24 hour period (CGM)” value [6] was “no significant glucose peaks occurred”. The HbA1c level maintained ([7]; 2-40 g citrate daily) was “less than 5.7%”, the “HbA1c level, lowest reached” value ([7]; 2-40 g citrate daily) was 4.18% and the “Glucose concentration in the blood” value ([7]; following 6 months of citrate administration, reference range 3.3-5.6) was 4.53 mmol/L. The “HbA1C in the blood” value ([7]; following 6 months of citrate administration, reference range 4-6) was 4.18%, the “CRP level in blood” value ([8]; after two months of citrate, baseline 0.5 mg/L, lower limit of detection 0.3 mg/L) was < 0.3 mg/L and the “CRP level, subsequent measurement with higher sensitivity equipment” value ([8]; subsequent measurement) was “below 0.16 mg/L”.
